pIC50: −log10 of the molar value. Like-named read-outs stand apart in the source and are kept apart here.
System: H1650 cells
Assay: CellTiterGlo (CTG) cell viability, 3D, 120 h, H1650 (Example 8)
Format: cell-based, human
Details: Homo sapiens, NCI-H1650, H1650 3D
Procedure: H1650 cells were cultivated in RPMI supplemented with 10% heat inactivated fetal bovine serum, penicillin (100 IU/ml), streptomycin (100 μg/ml) and L-glutamine (2 mM). Cell lines were cultured at 37° C. in a humidified atmosphere containing 5% 002. Cells were seeded in 96 microwell round bottom plates (96 microwell Low attachment plates , Costar reference 7007) and exposed to the payloads or ADCs for 120 h (serially diluted; 9 concentrations each, duplicates). Effects of payloads or ADCs on cell viability were assessed after 5 days of incubation at 37° C./5% CO2 by quantification of cellular ATP levels using CellTiterGlo at 75 μL reagent/well. All the conditions were tested in duplicates. Luminescence was quantified on a multipurpose plate reader. IC50S were calculated using standard four-parametric curve fitting. […] Each experiment was performed at least twice, with results being reproducible.

[1] = experiment n1, read-out: H1650 3D CTG IC50 n1
[2] = experiment n2, read-out: H1650 3D CTG IC50 n2
[3] = mean of n1 and n2, read-out: H1650 3D CTG IC50 Mean of n1 and n2

Row | pIC50 [1] | pIC50 [2] | pIC50 [3] | SMILES
1 | 8.21 | 8.21 | 8.21 | CNCCOC1Cc2c(nnc(Nc3nc4ccccc4s3)c2C)N(c2nc(C(=O)O)c(CCCOc3ccc(C#CCN(C)C)cc3F)s2)C1 (stereo not drawn) [P16, 2-{3-[(1,3-Benzothiazol-2-yl)amino]-4-methyl-6-[2-(methylamino)ethoxy]-5H,6H,7H,8H-pyrido[2,3-c]pyridazin-8-yl}-5-(3-{4-[3-(dimethylamino)prop-1-yn-1-yl]-2-fluorophenoxy}propyl)-1,3-thiazole-4-carboxylic acid]
2 | 8.74 | 8.46 | 8.58 | Cc1c(Nc2nc3ccccc3s2)nnc2c1CCCN2c1nc(C(=O)O)c(CCCOc2ccc(C#CCN3CCCCC3)cc2F)s1 [P18, 2-[3-(1,3-Benzothiazol-2-ylamino)-4-methyl-6,7-dihydro-5H-pyrido[2,3-c]pyridazin-8-yl]-5-[3-[2-fluoro-4-[3-(1-piperidyl)prop-1-ynyl]phenoxy]propyl]thiazole-4-carboxylic acid]
3 | 8.40 | 8.55 | 8.47 | Cc1c(Nc2nc3ccccc3s2)nnc2c1CCCN2c1ccc(-c2cnn(C[C@]34C[C@]5(C)C[C@](C)(C3)C[C@@](OCCNCC(CO)CO)(C5)C4)c2C)c(C(=O)O)n1 [P23, 6-[3-(1,3-benzothiazol-2-ylamino)-4-methyl-6,7-dihydro-5H-pyrido[2,3-c]pyridazin-8-yl]-3-[1-[[3-[2-[[3-hydroxy-2-(hydroxymethyl)propyl]amino]ethoxy]-5,7-dimethyl-1-adamantyl]methyl]-5-methyl-pyrazol-4-yl]pyridine-2-carboxylic acid]
4 | 8.68 | 8.74 | 8.71 | Cc1c(Nc2nc3ccccc3s2)nnc2c1CCCN2c1ccc(-c2cnn(C[C@]34C[C@]5(C)C[C@](C)(C3)C[C@@](OCCNC(CO)CO)(C5)C4)c2C)c(C(=O)O)n1 [P24, 6-[3-(1,3-benzothiazol-2-ylamino)-4-methyl-6,7-dihydro-5H-pyrido[2,3-c]pyridazin-8-yl]-3-[1-[[3-[2-[[2-hydroxy-1-(hydroxymethyl)ethyl]amino]ethoxy]-5,7-dimethyl-1-adamantyl]methyl]-5-methyl-pyrazol-4-yl]pyridine-2-carboxylic acid]
5 | 9.17 | 9.16 | 9.16 | Cc1cc(N(C)c2ccc(-c3cnn(C[C@]45C[C@]6(C)C[C@](C)(C4)C[C@@](OCCNCCCO)(C6)C5)c3C)c(C(=O)O)n2)nnc1Nc1nc2ccccc2s1 [P26, 6-[[6-(1,3-benzothiazol-2-ylamino)-5-methyl-pyridazin-3-yl]-methyl-amino]-3-[1-[[3-[2-(3-hydroxypropylamino)ethoxy]-5,7-dimethyl-1-adamantyl]methyl]-5-methyl-pyrazol-4-yl]pyridine-2-carboxylic acid]
6 | 9.66 | 9.52 | 9.59 | Cc1c(Nc2nc3ccccc3s2)nnc2c1CCCN2c1ccc(-c2cnn(C[C@]34C[C@]5(C)C[C@](C)(C3)C[C@@](OCCN(C)C)(C5)C4)c2C)c(C(=O)O)n1 [P27, 6-{3-[(1,3-benzothiazol-2-yl)amino]-4-methyl-6,7-dihydropyrido[2,3-c]pyridazin-8(5H)-yl}-3-[1-({3-[2-(dimethylamino)ethoxy]-5,7-dimethyladamantan-1-yl}methyl)-5-methyl-1H-pyrazol-4-yl]pyridine-2-carboxylic acid]
7 | 9.41 | 9.74 | 9.54 | Cc1c(Nc2nc3ccccc3s2)nnc2c1CCCN2c1nc(C(=O)O)c(CCCOc2ccc(C#CCN(C)C)cc2)s1 [P28, 2-[3-(1,3-benzothiazol-2-ylamino)-4-methyl-6,7-dihydro-5H-pyrido[2,3-c]pyridazin-8-yl]-5-[3-[4-[3-(dimethylamino)prop-1-ynyl]phenoxy]propyl]thiazole-4-carboxylic acid]
8 | 9.24 | 9.33 | 9.28 | COCCCNCCOC12CC3(C)CC(C)(CC(Cn4ncc(-c5ccc(N(C)c6cc(C)c(Nc7nc8ccccc8s7)nn6)nc5C(=O)O)c4C)(C3)C1)C2 [P29, 6-[[6-(1,3-benzothiazol-2-ylamino)-5-methyl-pyridazin-3-yl]-methyl-amino]-3-[1-[[3-[2-(3-methoxypropylamino)ethoxy]-5,7-dimethyl-1-adamantyl]methyl]-5-methyl-pyrazol-4-yl]pyridine-2-carboxylic acid]
9 | 9.24 | 8.85 | 9.00 | Cc1c(Nc2nc3ccccc3s2)nnc2c1CCCN2c1ccc(-c2cnn(C[C@]34C[C@]5(C)C[C@](C)(C3)C[C@@](OCCN3CCNCC3)(C5)C4)c2C)c(C(=O)O)n1 [P31, 6-[3-(1,3-benzothiazol-2-ylamino)-4-methyl-6,7-dihydro-5H-pyrido[2,3-c]pyridazin-8-yl]-3-[1-[[3,5-dimethyl-7-(2-piperazin-1-ylethoxy)-1-adamantyl]methyl]-5-methyl-pyrazol-4-yl]pyridine-2-carboxylic acid]
10 | 9.62 | 9.66 | 9.64 | Cc1c(Nc2nc3ccccc3s2)nnc2c1CCCN2c1ccc(-c2cnn(C[C@]34C[C@]5(C)C[C@](C)(C3)C[C@@](OCCN3CCN(C(C)C)CC3)(C5)C4)c2C)c(C(=O)O)n1 [P32, 6-[3-(1,3-benzothiazol-2-ylamino)-4-methyl-6,7-dihydro-5H-pyrido[2,3-c]pyridazin-8-yl]-3-[1-[[3-[2-(4-isopropylpiperazin-1-yl)ethoxy]-5,7-dimethyl-1-adamantyl]methyl]-5-methyl-pyrazol-4-yl]pyridine-2-carboxylic acid]
11 | 9.19 | 9.06 | 9.12 | Cc1c(Nc2nc3ccccc3s2)nnc2c1CCCN2c1nc(C(=O)O)c(CCCOc2ccc(C#CCN(C)CC[C@H](O)CO)cc2F)s1 [P34, 2-[3-(1,3-benzothiazol-2-ylamino)-4-methyl-6,7-dihydro-5H-pyrido[2,3-c]pyridazin-8-yl]-5-[3-[4-[3-[[(3S)-3,4-dihydroxybutyl]-methyl-amino]prop-1-ynyl]-2-fluoro-phenoxy]propyl]thiazole-4-carboxylic acid]
12 | 9.64 | 9.57 | 9.60 | Cc1c(Nc2nc3ccccc3s2)nnc2c1CCCN2c1ccc(-c2cnn(C[C@]34C[C@]5(C)C[C@](C)(C3)C[C@@](OCCN(C)CCO)(C5)C4)c2C)c(C(=O)O)n1 [P35, 6-[3-(1,3-benzothiazol-2-ylamino)-4-methyl-6,7-dihydro-5H-pyrido[2,3-c]pyridazin-8-yl]-3-[1-[[3-[2-[2-hydroxyethyl(methyl)amino]ethoxy]-5,7-dimethyl-1-adamantyl]methyl]-5-methyl-pyrazol-4-yl]pyridine-2-carboxylic acid]
13 | 9.59 | 9.51 | 9.54 | COCCCN(C)CCOC12CC3(C)CC(C)(CC(Cn4ncc(-c5ccc(N6CCCc7c6nnc(Nc6nc8ccccc8s6)c7C)nc5C(=O)O)c4C)(C3)C1)C2 [P36, 6-[3-(1,3-benzothiazol-2-ylamino)-4-methyl-6,7-dihydro-5H-pyrido[2,3-c]pyridazin-8-yl]-3-[1-[[3-[2-[3-methoxypropyl(methyl)amino]ethoxy]-5,7-dimethyl-1-adamantyl]methyl]-5-methyl-pyrazol-4-yl]pyridine-2-carboxylic acid]
14 | 9.40 | 8.92 | 9.10 | Cc1c(Nc2nc3ccccc3s2)nnc2c1CCCN2c1ccc(-c2cnn(C[C@]34C[C@]5(C)C[C@](C)(C3)C[C@@](OCCN(C)CCCCO)(C5)C4)c2C)c(C(=O)O)n1 [P37, 6-[3-(1,3-benzothiazol-2-ylamino)-4-methyl-6,7-dihydro-5H-pyrido[2,3-c]pyridazin-8-yl]-3-[1-[[3-[2-[4-hydroxybutyl(methyl)amino]ethoxy]-5,7-dimethyl-1-adamantyl]methyl]-5-methyl-pyrazol-4-yl]pyridine-2-carboxylic acid]
15 | 9.72 | 9.48 | 9.59 | Cc1c(Nc2nc3ccccc3s2)nnc2c1CCCN2c1ccc(-c2cnn(CC34CC5(C)CC(C)(C3)CC(OCCN3CCCCC3)(C5)C4)c2C)c(C(=O)O)n1 [P38, 6-[3-(1,3-benzothiazol-2-ylamino)-4-methyl-6,7-dihydro-5H-pyrido[2,3-c]pyridazin-8-yl]-3-[1-[[3,5-dimethyl-7-[2-(1-piperidyl)ethoxy]-1-adamantyl]methyl]-5-methyl-pyrazol-4-yl]pyridine-2-carboxylic acid]
16 | 9.68 | 9.47 | 9.55 | Cc1c(Nc2nc3ccccc3s2)nnc2c1CCCN2c1ccc(-c2cnn(C[C@]34C[C@]5(C)C[C@](C)(C3)C[C@@](OCCN3CCOCC3)(C5)C4)c2C)c(C(=O)O)n1 [P39, 6-[3-(1,3-benzothiazol-2-ylamino)-4-methyl-6,7-dihydro-5H-pyrido[2,3-c]pyridazin-8-yl]-3-[1-[[3,5-dimethyl-7-(2-morpholinoethoxy)-1-adamantyl]methyl]-5-methyl-pyrazol-4-yl]pyridine-2-carboxylic acid]
17 | 8.48 | 8.68 | 8.57 | Cc1c(Nc2nc3ccccc3s2)nnc2c1CCCN2c1ccc(-c2cnn(C[C@]34C[C@@]5(C)C[C@](C)(C[C@](CCCN6CCCC6)(C5)C3)C4)c2C)c(C(=O)O)n1 [P41, 6-[3-(1,3-benzothiazol-2-ylamino)-4-methyl-6,7-dihydro-5H-pyrido[2,3-c]pyridazin-8-yl]-3-[1-[[3,5-dimethyl-7-(3-pyrrolidin-1-ylpropyl)-1-adamantyl]methyl]-5-methyl-pyrazol-4-yl]pyridine-2-carboxylic acid]
